In patent US20130298921A1, “INHALER FOR SMOKING CESSATION” (Rock Creek Pharmaceuticals, Inc., priority 2011, published 2013):
Read-outs that look alike come from different tables or passages of the source.

What was measured:
[1] = test system: nicotine self-administration by rats; conditions: anatabine 1.8-5.6 mg/kg, Caine et al., 2013, cited from earlier work
[2] = test system: nicotine self-administration in rhesus monkeys; assay: nicotine self-administration in nonhuman primate model (second-order schedule, nicotine- and food-maintained responding); format: in vivo, rhesus monkeys (Macaca Mulatta); conditions: for food-maintained responding (change with increasing anatabine doses): anatabine 0.18-3.2 mg/kg IM; for nicotine self-administration: single doses of anatabine 0.18-3.2 mg/kg IM, nicotine training dose 0.01 mg/kg/inj (base)
Description: Food was available during three 1-hour sessions each day (7 AM, 3 PM and 7 PM).
Food pellets were limited to 25 per session or 100 per day.
Nicotine doses are expressed as the base.

α7 nAChR channel = target: T1, α7 nAChR channel (Homo sapiens, UniProt P36544); assay: Fluo-8 calcium FLIPR assay, cloned nAChR channels in mammalian cells; format: cell-based; conditions: for agonist character / maximum level of activation: agonist assay
T1 construct: expressed in transfected cells
T1 sequence (P36544 23-502): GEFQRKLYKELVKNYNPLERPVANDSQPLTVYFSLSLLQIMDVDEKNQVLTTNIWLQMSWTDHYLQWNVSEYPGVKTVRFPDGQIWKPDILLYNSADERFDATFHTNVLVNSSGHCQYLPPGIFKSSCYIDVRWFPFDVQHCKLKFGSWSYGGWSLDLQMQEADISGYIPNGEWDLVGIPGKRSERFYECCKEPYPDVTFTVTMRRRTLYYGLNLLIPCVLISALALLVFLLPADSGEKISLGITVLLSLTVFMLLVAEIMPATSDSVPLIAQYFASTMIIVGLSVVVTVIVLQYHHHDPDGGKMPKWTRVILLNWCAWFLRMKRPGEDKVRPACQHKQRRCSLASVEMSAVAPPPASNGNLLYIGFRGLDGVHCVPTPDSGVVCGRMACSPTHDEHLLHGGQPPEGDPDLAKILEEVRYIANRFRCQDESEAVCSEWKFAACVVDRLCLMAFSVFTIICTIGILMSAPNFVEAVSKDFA

α3/β4 nAChR channel = target: T2, α3/β4 nAChR channel (Homo sapiens, UniProt P30926+P32297); assay: as above; format: cell-based
T2 construct: expressed in transfected cells
T2 sequence (P32297 32-505): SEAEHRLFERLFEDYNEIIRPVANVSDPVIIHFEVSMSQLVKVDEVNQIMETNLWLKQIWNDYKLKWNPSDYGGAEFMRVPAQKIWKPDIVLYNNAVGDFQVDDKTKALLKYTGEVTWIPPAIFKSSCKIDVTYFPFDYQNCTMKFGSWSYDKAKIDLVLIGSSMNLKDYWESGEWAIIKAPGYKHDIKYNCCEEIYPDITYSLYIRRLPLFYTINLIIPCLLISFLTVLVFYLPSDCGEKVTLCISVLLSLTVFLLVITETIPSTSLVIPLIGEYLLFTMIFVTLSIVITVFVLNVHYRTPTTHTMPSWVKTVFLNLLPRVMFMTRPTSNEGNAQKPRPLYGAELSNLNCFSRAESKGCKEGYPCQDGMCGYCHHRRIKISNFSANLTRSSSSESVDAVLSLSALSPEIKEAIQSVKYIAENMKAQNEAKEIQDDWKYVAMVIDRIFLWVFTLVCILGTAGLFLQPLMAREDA
T2 sequence (P30926 22-498): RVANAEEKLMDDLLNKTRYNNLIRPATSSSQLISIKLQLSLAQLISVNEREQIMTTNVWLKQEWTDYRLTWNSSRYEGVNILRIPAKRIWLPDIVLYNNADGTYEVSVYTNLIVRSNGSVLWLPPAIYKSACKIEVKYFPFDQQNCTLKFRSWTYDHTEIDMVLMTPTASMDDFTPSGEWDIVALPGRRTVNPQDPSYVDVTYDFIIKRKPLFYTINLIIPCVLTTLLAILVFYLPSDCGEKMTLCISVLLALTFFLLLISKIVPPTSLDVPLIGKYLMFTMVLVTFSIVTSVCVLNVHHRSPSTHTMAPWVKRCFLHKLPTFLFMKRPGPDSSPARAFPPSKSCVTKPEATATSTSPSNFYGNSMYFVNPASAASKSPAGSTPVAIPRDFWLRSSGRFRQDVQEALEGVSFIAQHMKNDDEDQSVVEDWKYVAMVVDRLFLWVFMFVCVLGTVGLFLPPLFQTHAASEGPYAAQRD

[3] = test system: rodents trained to self-administer nicotine; assay: reward in rodents trained to self-administer nicotine; format: in vivo
[4] = test system: nicotine self-administration by rats; assay: nicotine self-administration by rats; format: in vivo; conditions: anatabine 1.8 and 3.2 mg/kg IP; peak reinforcing nicotine doses 0.003 and 0.01 mg/kg/inj; P<0.05-0.001; FIG. 6
[5] = test system: precipitated nicotine withdrawal; assay: precipitated nicotine withdrawal; format: in vivo, rodents; conditions: anatabine administration
α4/β2 nAChR channel = target: T3, α4/β2 nAChR channel (Homo sapiens, UniProt P17787+P43681); assay: Fluo-8 calcium FLIPR assay, cloned nAChR channels in mammalian cells; format: cell-based
T3 construct: expressed in transfected cells
T3 sequence (P43681 29-627 limits assumed): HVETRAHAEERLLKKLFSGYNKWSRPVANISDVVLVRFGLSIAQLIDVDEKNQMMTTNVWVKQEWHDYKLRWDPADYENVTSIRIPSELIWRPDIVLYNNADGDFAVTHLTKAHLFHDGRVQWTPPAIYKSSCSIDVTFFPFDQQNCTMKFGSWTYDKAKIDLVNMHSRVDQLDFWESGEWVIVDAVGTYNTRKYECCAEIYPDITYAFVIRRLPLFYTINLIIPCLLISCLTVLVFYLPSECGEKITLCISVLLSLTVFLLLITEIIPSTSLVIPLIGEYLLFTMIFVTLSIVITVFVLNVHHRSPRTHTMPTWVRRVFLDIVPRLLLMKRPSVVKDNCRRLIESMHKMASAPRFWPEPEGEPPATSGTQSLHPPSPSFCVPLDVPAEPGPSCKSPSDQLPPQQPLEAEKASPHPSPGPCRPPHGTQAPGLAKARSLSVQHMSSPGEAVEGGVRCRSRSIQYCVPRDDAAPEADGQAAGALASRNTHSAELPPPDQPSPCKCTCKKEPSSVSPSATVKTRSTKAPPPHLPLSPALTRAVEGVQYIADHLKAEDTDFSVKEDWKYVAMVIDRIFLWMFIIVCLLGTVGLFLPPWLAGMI
T3 sequence (P17787 26-502): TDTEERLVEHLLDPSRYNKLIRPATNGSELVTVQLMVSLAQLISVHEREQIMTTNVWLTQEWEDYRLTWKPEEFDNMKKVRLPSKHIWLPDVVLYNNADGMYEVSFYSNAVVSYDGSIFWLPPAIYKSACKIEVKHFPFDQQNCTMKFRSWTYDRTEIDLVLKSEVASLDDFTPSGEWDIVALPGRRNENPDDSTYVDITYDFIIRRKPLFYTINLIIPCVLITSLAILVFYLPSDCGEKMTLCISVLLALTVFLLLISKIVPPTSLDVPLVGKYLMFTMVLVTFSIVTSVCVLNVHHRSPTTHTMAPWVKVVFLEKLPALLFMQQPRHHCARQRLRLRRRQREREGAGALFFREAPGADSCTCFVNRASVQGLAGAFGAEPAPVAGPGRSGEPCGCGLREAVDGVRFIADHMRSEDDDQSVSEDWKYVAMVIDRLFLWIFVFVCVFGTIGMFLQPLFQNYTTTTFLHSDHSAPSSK

[6] = test system: Frontal cortex (rat frontal homogenates); assay: binding relative to nicotine in rat frontal homogenates; conditions: reference set to 1.0
Description: (§1) This example describes a study conducted on anatabine along with other common nicotinic alkaloids in rat frontal and hippocampal homogenates.

[7] = test system: Hippocampus (rat hippocampal homogenates); assay: binding relative to nicotine in rat hippocampal homogenates; conditions: reference set to 1.0
Description: as §1

[8] = antagonist and positive allosteric modulator modes

In the case of `C1=CCC(c2cccnc2)NC1` (racemic) [Anatabine, anatabine], the “effect on nicotine dose-effect curve” value [1] is given as “flattened the nicotine dose-effect curve”, the nicotine-maintained responding ([1]; nicotine 0.003 and 0.01 mg/kg/inj) is given as “significantly reduced” and the “effect on nicotine dose-effect curve” value ([2]; anatabine 0.32 mg/kg, data for two monkeys) is given as “shifts the peak of the dose-effect curve to the right”. The “effect on nicotine dose-effect curve” value ([2]; anatabine 1.0 mg/kg) was “flattened the dose-effect curve”, the “food-maintained responding (change with increasing anatabine doses)” value [2] was “no significant effects” and the “food-maintained responding (change with increasing anatabine doses)” value ([2]; listed as anatabine) was “not statistically significant”. For the same compound, the “decreases in nicotine-maintained responding versus baseline” value ([2]; anatabine doses of 1.8 and 3.2 mg/kg IM, P<0.005-0.02) was “significantly different from baseline”, the “systematic behavioral assessments (sedation or agitation)” value ([2]; following each treatment session) was “no evidence of sedation or agitation” and the nicotine self-administration [2] was “dose-dependently reduced”. The nicotine self-administration ([2]; listed as anatabine) was “dose-dependently decreased”, the agonist character (α7 nAChR channel) was “full, potent agonists” and the “maximum level of activation” value (α7 nAChR channel) was “also similar (and similar to ACh)”. For the same compound, the “antagonist or PAM effects” value (α7 nAChR channel; [8]) was “no antagonist or PAM effects”, the EC50 (α3/β4 nAChR channel; agonist assay) was 14.6 µM and the agonist character (α3/β4 nAChR channel; agonist assay) was “partial agonist”. For the same compound, the “antagonist or PAM effects” value (α3/β4 nAChR channel; [8]) was “no antagonist or PAM effects”, the rewarding effect [3] was “do not find anatabine to be rewarding” and the nicotine-maintained responding [4] was “significantly reduced”. For the same compound, the “reversal of precipitated nicotine withdrawal” value [5] was “does not reverse precipitated nicotine withdrawal”, the agonist character (α4/β2 nAChR channel; agonist assay) was “full agonist” and the “antagonist or PAM effects” value (α4/β2 nAChR channel; [8]) was “no antagonist or PAM effects”.

In the case of `CN1CCCC1c1cccnc1` (single isomer, unassigned) [Nicotine, nicotine, reference compound], the “Nicotine Binding Constant” value [6] is reported as 1.0, the “food-maintained responding with increasing doses of nicotine” value ([2]; nicotine 0.001-0.1 mg/kg/inj) is reported as “did not change” and the “peak of the nicotine dose-effect curve” value ([2]; nicotine 0.001-0.1 mg/kg/inj, 7 monkeys) is reported as 0.0032 mg/kg/inj. The agonist character (α7 nAChR channel) was “full, potent agonists”, the “maximum level of activation” value (α7 nAChR channel) was “also similar (and similar to ACh)” and the agonist character (α3/β4 nAChR channel; agonist assay) was “full agonist”. For the same compound, the “maximal response of the channel compared with ACh” value (α3/β4 nAChR channel; agonist assay) was “approached that of ACh” and the “Nicotine Binding Constant” value [7] was 1.0.
